Entries after “also recorded” stand apart in the source; their conditions may differ. Read-outs that look alike come from different tables or passages of the source.

The conditions of series [1]: cited from earlier work.
Series [2] is described as follows: Acute toxicity in rats (intragastral, 7 days observation, LD50 by Weber's probit analysis). The series is classed as in vivo, rat (SIV 50 strain). To be noted: rat, in vivo, po. As to the method:
(§1) The experimental animals used were male and female rats of the SIV 50 strain with a body weight of 115 to 170 g and of 100 to 160 g, respectively. All the animals were fasted for 20 hours before the commencement of the experiments, water was available ad libitum. There were 10 animals in each dosage group. The test substances were administered intragastrally with a metal probe in the form of 1% tragacanth slurry suspensions (4 ml/100 g of body weight).
(§2) The animals were observed over a period of time of 7 days. For the calculation of the LD50 with the related confidence limits, use was made of Weber's probit analysis (see Grundriss der Biologischen Statistik, pub. Gustav Fischer Verlag, Jena, 1-72).

Series [3] concerns rats with renovascular high blood pressure. The experiment in a line: Renovascular high blood pressure in rats. It counts as in vivo, rat (SIV 50 strain). Details: average blood pressure: unit: mmHg. An excerpt: The antihypertensive properties were investigated in rats which, after experimental ligature of the kidney blood flow, had developed a renovascular high blood pressure. The experimental animals used were male rats of the SIV 50 strain which, under ether narcosis, had been monolaterally nephrectomised and the contralateral renal arteries of which had been stenosed 2 days later with the help of silver clips. After 6 to 8 weeks, these animals developed a high blood pressure. The blood pressure measurement took place bloodlessly on the root of the tail of the animals. The test substances were administered intragastrally once daily as tragacanth slurry suspensions for 33 days.

The subject of another series is awake rats (diuresis). The experiment in a line: Diuresis in awake rats (urine volume within the first 4 hours). It counts as in vivo, rat (SIV 50 strain). To be noted: intragastral, urine volume in 4 hours, FIG. 2. As to the method: The experimental animals used were male rats of the SIV 50 strain which were kept under constant conditions. Feed was removed 36 hours before the commencement of the experiments but water was available until just before the commencement of the experiment. The test substances were administered intragastrally as suspensions in 1% tragacanth slurry which has been prepared with a 0.2% sodium chloride solution (1 ml/100 g body weight). In addition, the animals were given intragastrally 4 ml/100 g body weight a 0.2% sodium chloride solution. The animals were kept individually in metabolic cages in order to determine the urine volumes within the first 4 hours.

For series [4], the system named is male and female rats of the SIV 50 strain. The experiment in a line: Acute toxicity in rats (intragastral, 7 days observation, LD50 by Weber's probit analysis). The series is classed as in vivo, rat (SIV 50 strain). To be noted: rat. The method, then:
as §1, §2

The nature of series [5]: Racemization of (+)-ozolinone in 0.1N hydrochloric acid and in chloroform. The series is classed as physicochemical. The note with it: read-out: degree of racemization. The method, then:
Esterification of the known, optically-active (+)-(3-methyl-4-oxo-5N-piperidinothiazolidin-2-ylidene)-acetic acid [(+)-ozolinone (see Federal Republic of Germany Patent Specification No. 26 58 858)] also cannot be carried out with agents which can be used on a large scale because it racemizes under the esterification conditions. Thus, for example, (+)-ozolinone racemizes to an extent of 15% in 0.1N hydrochloric acid in less than 1 hour. Even in chloroform, in the same period of time, the degree of racemization which occurs is about 10%.

For another series, the system named is mice. To be noted: male mice; literature (Meng-Loew, Diuretika, 1974); cited from earlier work.
[6] abbreviates: 100 mg/kg i.g., 2nd day after treatment.
Setting [7] is: 100 mg/kg i.g., 20th day of treatment.
Setting [8] is: 100 mg/kg i.g., before treatment.
Where [9] appears, read: 200 mg/kg i.g., 8th day after treatment.
The mark [10] stands for this setting: 200 mg/kg i.g., 10th day of treatment.
The mark [11] stands for this setting: 200 mg/kg i.g., 17th day of treatment.
The mark [12] stands for this setting: 200 mg/kg i.g., 33rd day of treatment.
The mark [13] stands for this setting: 200 mg/kg i.g., before treatment.

With `CCOC(=O)C=C1SC(N2CCCCC2)C(=O)N1C` (racemic) [Compound A, ethyl (±)-(3-methyl-4-oxo-5N-piperidinothiazolidin-2-ylidene)acetate], the “antihypertensive activity (in words)” value in series [1] (published) was “good antihypertensive activity”. Moreover, the “diuretic / saluretic activity (in words)” value in series [1] (published) was “strong diuretic and saluretic properties”. Besides, the “antihypertensive effect at subdiuretic doses (in words)” value in series [1] (subdiuretic doses, DE 25 32 180) is “even at subdiuretic doses, an antihypertensive effect occurs”. Moreover, the LD50 at 168 h in series [2] (female rat) came out at 10200 mg/kg; in series [2] (male rat), 11000 mg/kg. Further, the average blood pressure is on record as 195 in series [3] (setting [6]); 175 in series [3] (setting [7]); 197 in series [3] (setting [8]); 182 in series [3] (setting [9]); 171 in series [3] (setting [10]); 182 in series [3] (setting [11]). Also, the average blood pressure was determined as 174 in series [3] (setting [12]) and 187 in series [3] (setting [13]). The “diuretic action (in words)” value with awake rats (diuresis) is listed as “diuretically effective in a dosage dependent manner”.

As for `CCOC(=O)C=C1SC(N2CCCCC2)C(=O)N1C` (single isomer, unassigned) [Compound B, ethyl (+)-(3-methyl-4-oxo-5N-piperidinothiazolidin-2-ylidene)acetate], the “acute toxicity (in words)” value in series [4] is “more toxic than Compound A; also recorded: extraordinarily nontoxic”. Further, the LD50 at 168 h is over 2000 mg/kg in series [2] (bound stated), 4230 mg/kg in series [2] (female rat) and 3650 mg/kg in series [2] (male rat). The average blood pressure in series [3] (setting [6]) was found to be 190; in series [3] (setting [7]), 164; in series [3] (setting [8]) it was 189; in series [3] (setting [9]) it was 182; in series [3] (setting [10]), 159; in series [3] (setting [11]), 150. Further, the average blood pressure amounted to 156 in series [3] (setting [12]) and 185 in series [3] (setting [13]). For the same molecule, the “antihypertensive action (in words)” value in series [3] (rats with renovascular high blood pressure) was “possesses the strongest antihypertensive action and that this effect is dosage dependent”. Further, the “diuretic action (in words)” value with awake rats (diuresis) is “diuretically inactive; also recorded: does not possess any diuretic action at all”.

As for `CCOC(=O)C=C1SC(N2CCCCC2)C(=O)N1C` (single isomer, unassigned) [Compound C, ethyl (-)-(3-methyl-4-oxo-5N-piperidinothiazolidin-2-ylidene)acetate], the average blood pressure stood at 201 in series [3] (setting [6]); 176 in series [3] (setting [7]); 191 in series [3] (setting [8]); 190 in series [3] (setting [9]); 178 in series [3] (setting [10]); 176 in series [3] (setting [11]). Besides, the figures for the average blood pressure in series [3] (setting [12]) and in series [3] (setting [13]) were 164 and 192, respectively. For the same molecule, in the series on awake rats (diuresis), the “diuretic action (in words)” value is given as “diuretically effective in a dosage dependent manner”.

Turning to `CN1C(=O)C(N2CCCCC2)SC1=CC(=O)O` (single isomer, unassigned; (+)) [(+)-ozolinone, (+)-(3-methyl-4-oxo-5N-piperidinothiazolidin-2-ylidene)-acetic acid], the degraded at 1 h in series [5] (0.1N hydrochloric acid, less than 1 hour) is 15%; in series [5] (chloroform, same period of time (less than 1 hour)), about 10%.

For the molecule `NS(=O)(=O)c1cc2c(cc1Cl)NCNS2(=O)=O` [Compound D, 6-chloro-3,4-dihydro-2H-1,2,4-benzothiadiazine-7-sulphonamide 1,1-dioxide], in the series with mice, the LD50 is on record as 3,080 mg/kg.

With `C=C(CC)C(=O)c1ccc(OCC(=O)O)c(Cl)c1Cl` [Compound F, [2,3-dichloro-4-(2-methylene-1-oxobutyl)phenoxy]acetic acid], in the series on mice, the LD50 is given as 600 mg/kg.

The term LD50 denotes the dose expected to kill half of the subjects tested.

The values are drawn from patent US4255433A, “(+)-(3-Methyl-4-oxo-5N-piperidinothiazolidin-2-ylidene)acetic acid esters, method of preparation and use” (Godecke Aktiengesellschaft, priority 1979, dated 1981).
